# Numbered stars: 1 amine (or outer) side, 2 acyl side, 3 side chain; on linkers, the order of the positions; unused ones are H or OH. Bridge positions count the residues as written; N and C are the ends. Square brackets hold non-standard residues; d marks the D form. Peptide text beside a SMILES is read from it. I, II: the chains in the order shown. Actinocin(9to1) = Cc1c2oc3c(C)ccc(C(=O)[*:1])c3nc-2c(C(=O)[*:2])c(N)c1=O; NMeV = CN[C@H](C(=O)O)C(C)C; Sar = CNCC(=O)O
# Tests used:
# [1] = tested on: Aplysia sensory-motor neuron cocultures; assay: Short- and long-term synaptic facilitation (EPSP amplitude in motor neuron L7) in sensory-motor neuron cocultures; format: cell-based
# Description: Aplysia sensory neurons from the pleural ganglia of adult animals (80–100 g) were cocultured with the motor neuron L7 from juvenile animals (0.5–4 g). After 4–5 days in culture, the strength of the synaptic connections between the sensory and motor cell was measured electrophysiologically, as previously described (Montarolo et al. 1986, Alberini et al., 1994). The motor neuron was impaled with a glass microelectrode filled with 2.5M KCl (10 MΩ (resistance) and its membrane potential was held at 30 mV below its resting value. The EPSP was evoked by extracellular stimulation of the sensory neuron and the data were stored on a 4 channel tape recorder.
# Two protocols were used to induce synaptic facilitation in Aplysia cocultures. In the first, after testing the initial EPSP amplitude, 10 μM 5-HT was applied for 5 min (single pulse). […] The amount of facilitation was calculated as the percentage change in EPSP amplitude recorded before and at the different time points after the single 5-HT application. In the other group of experiments, long-term facilitation was evoked by five exposures to 10 μM 5-HT for 5 min each, at 20 min intervals (5 pulses). The facilitation was calculated as the percentage change in EPSP amplitude 24 hr after the five pulses of 5-HT. The antisera, adjusted to the osmolarity of Aplysia neurons (Alberini et al., 1994), were pressure injected into the sensory neurons 1 hr before 5-HT treatment. Where indicated, anisomycin (10 μM) or actinomycin D (50 μg/ml) was added to the cocultures 1 hr before the 5-HT pulse and was present continuously during the 5-HT treatment. All data are presented as mean percentage change ±SEM in the EPSP amplitude measured after treatment, as compared with its initial pretreatment amplitude. A one way analysis of variance and Newman Keuls multiple range test were used to determine the significance of the EPSP changes.
# [2] = tested on: Aplysia sensory-motor neuron cocultures; assay: Number of fluorescent sensory neuron varicosities contacting the motor neuron; format: cell-based; settings: 24 hr after one pulse of 5-HT; antiserum injected 1 hr before training
# Description: Individual sensory neuron were cocultivated with a single motor cell. Glass micropipettes were filled with a 6% sterile-filtered solution of the fluorescent dye 5(6)-carboxyfluorescein (chromatographically purified; Molecular Probes) in 0.44 M KOH (pH 7.0, resistance 50-90 M. The dye was injected into the sensory neurons immediately after measuring the initial EPSP amplitude by 0.4–0.6 nA hyperpolarizing current pulses (500 ms duration at 1 Hz) for 4–6 min, phase contrast and fluorescence images of the same view areas were taken both before and 24 hr after treatment as previously described (Glanzman et al., 1990; Bailey et al., 1992).
# Varicosities were identified according to criteria previously established for sensory neurons in vivo (Bailey et al., 1979; Bailey and Chen, 1983, 1988), and in vitro (Glanzman et al., 1990; Bailey et al., 1992) and included all slightly elongated spheres of approximately 2–3 μm or more in diameter.
# ApCREB-2 mRNA = assay: Steady state level of ApCREB-2 mRNA after exposure to agents; design: species or system Aplysia; settings: following exposure to the agent
# Description: RNA was isolated from cultures of approximately 200 Aplysia sensory neurons that had been exposed to none, one, or five pulses of 5-HT (10 μM) as indicated. As a control, one half of the RNA was processed omitting reverse transcriptase from the reaction (—RT).
# (FIG. 3B) Northern blot analysis of RNA isolated from CNS of Aplysia exposed to 5-HT in vivo. CNSs were dissected from anesthetized animals after exposing them in vivo to 5-HT (50 μM) for the time indicated above each lane. Eight μg of total RNA from each timepoint was separated in a 1% agarose gel, blotted and consecutively hybridized with probes specific for ApCREB-2, ApCREB-1, ApC/EBP, and ribosomal protein S4 transcripts.
# Cultures of approximately 200 Aplysia sensory neurons, established by the dissociation of the pleural sensory cluster in a single dish, were exposed to 10 μM 5-HT for 5 min once or five times separated by 20 min. After washing with ASW, cells were lysed by 100 μl of the guanidium thiocyanate solution and the RNA was isolated. For RT-PCR, the isolated RNA was treated with RNAse free DNAse (Boehringer), reextracted as above and processed using RT-PCR kit (Boehringer). The sequence of the primers used were […]
# ATF4 = assay: Amount of ATF4 during neuronal differentiation of PC12 cells; format: cell-based, rat; settings: PC12 cells exposed during differentiation
# From the text: The above may be tested in a cellular model of neuronal differentiation, specifically the rat pheochromocytoma cells PC12. The cell line is widely used as a model for neuronal differentiation and also for apoptosis, which is programmed neuronal cell death. PC12 cells are undifferentiated in culture and can be differentiated in vitro by exposing them to nerve growth factor (NGF) and cAMP analogs. Withdrawal of these compounds from the cell culture conditions leads to programmed cell death.
# It has been investigated whether ATF4 plays a role in the neuronal differentiation of PC12 cells. […] In addition, overexpression of ATF4 in PC12 cells by transfecting expression constructs with constitutive CMV promoter and ATF4 cDNA prevents the PC12 cells from undergoing neuronal differentiation. […] It is important to also study the role of ATF4 in apoptosis. Since both differentiation and cell death in PC12 cell culture involve similar signal transduction pathways, it is reasonable that ATF4 may be involved in this process as well.
# [3] = tested on: CRE-mediated transcription (5xCRE-VIP-lacZ reporter); assay: 5xCRE-VIP-lacZ reporter, transient cotransfection of F9 cells; format: cell-based, mouse
# Description: (FIG. 5B) Transient transfections of F9 cells using a 5xCRE-VIP-lacZ reporter plasmid. The indicated expression constructs were cotransfected with 5xCRE-VIP-lacZ reporter as in (A), except that relative (-galactosidase activity was calculated relative to 5xCRE-VIP-lacZ reporter and normalized to the luciferase activity of cotransfected pRSV-luc. ApCREB-2 and ApCREB-1 are activators of 5xCRE-VIP-lacZ reporter, but become mutual repressors when coexpressed.
# (§1) Undifferentiated mouse F9 cells were transfected using Lipofectamine (BRL). The β-galactosidase and luciferase activities were quantitated by chemiluminescence (Galacton Plus, Tropix, and a Luciferase assay kit, Promega) in a Turner 20e luminometer.
# [4] = tested on: CRE-mediated transcription (pGL3-CRE reporter); assay: pGL3-CRE luciferase reporter, transient cotransfection of F9 cells; format: cell-based, mouse
# Description: (FIG. 5A) Mouse F9 cells were transiently cotransfected with 1 μg of pGL3-CRE reporter plasmid along with 1 μg of each of the indicated expression plasmids: ApCREB-2=pRcRSV-ApCREB-2, ApCREB-1=pRcRSV-ApCREB-1, PKA=pRcRSV-PKA. All transfections were adjusted to 4 μg total DNA with pRcRSV vector DNA.
# as §1
# UASg-lacZ gene = assay: GAL4 DNA binding domain activation assay in yeast; format: cell-based, S. cerevisiae; settings: fused to the GAL4 DNA binding domain, reporter UASg-lacZ
# Description: The Aplysia CNS cDNA library was synthesized in pGAD10 using random hexamers and the BRL cDNA synthesis kit. Two libraries constructed from size fractionated cDNAs with average inserts >2 kb (5×10^6 independent clones each) were used in the two-hybrid screening as described previously (Fields and Song., 1989, Durfee et al., 1993, Ausubel et al., 1994). The transcriptional activation properties of ApCREB-2 and its interaction with other proteins in the two-hybrid system was analyzed using the full length ApCREB-2 and its deletion mutants subcloned in pAS1 and pACT2 vectors. The transcriptional activity of ApCREB-2/GAL4 DNA binding domain fusions was determined as decribed (Ma and Ptashne, 1987; Durfee et al., 1993). To analyze the protein interactions, ApCREB-2, ApC/EBP, rat CREB, c-fos and deletion mutants of these proteins in pAS1 and pACT2 were cotransformed into S. cerevisiae Y190, and the expressed β-galactosidase quantified as above.
# [5] = 2 hr after one pulse of 5-HT paired with ApCREB-2 antiserum injection, inhibitor present during 5-HT
# [6] = 24 hr after one pulse of 5-HT paired with ApCREB-2 antiserum injection, inhibitor present during 5-HT
# [7] = expression plasmid alone, with PKA
# [8] = expression plasmid alone, without PKA
molecule,measurement,setting,value
"NCCc1c[nH]c2ccc(O)cc12 [5-HT, serotonin]",percent change in EPSP amplitude,[1]; 10 min after one pulse of 5-HT,13.6%
same,percent change in EPSP amplitude,"[1]; 30 min after one pulse of 5-HT, sera injected 1 hr before",2.83%
same,percent change in EPSP amplitude,"[1]; 2 hr after one pulse of 5-HT, sera injected 1 hr before",−1%
same,facilitation of the synaptic potential,[1]; massed training: 25 minutes of continuous exposure to 5-HT,+39%
same,duration of short-term facilitation,"[1]; single pulse of 5-HT, no injection",about 10 min
same,percent change in the number of sensory neuron varicosities,[2],−10%
same,level of ApCREB-2 mRNA,ApCREB-2 mRNA,not affected
CNc1ccc2oc(C[C@H]3O[C@@]4(CC[C@H]3C)O[C@H]([C@H](C)C(=O)c3ccc[nH]3)[C@H](C)C[C@H]4C)nc2c1C(=O)O [A23187],level of ApCREB-2 mRNA,ApCREB-2 mRNA,does not change
CC(C)Cn1c(=O)n(C)c(=O)c2[nH]cnc21 [IBMX],level of ApCREB-2 mRNA,ApCREB-2 mRNA,does not change
Nc1ncnc2c1ncn2[C@@H]1O[C@@H]2CO[P@@](O)(=S)O[C@H]2[C@H]1O [Rp-cAMPS],level of ApCREB-2 mRNA,ApCREB-2 mRNA,does not change
Nc1ncnc2c1ncn2[C@@H]1O[C@@H]2COP(O)(=S)O[C@H]2[C@H]1O (some centres unmarked) [Sp-cAMPS],level of ApCREB-2 mRNA,ApCREB-2 mRNA,does not change
"Cc1c2oc3c(C)ccc(C(=O)N[C@@H]4C(=O)N[C@H](C(C)C)C(=O)N5CCC[C@H]5C(=O)N(C)CC(=O)N(C)[C@@H](C(C)C)C(=O)O[C@@H]4C)c3nc-2c(C(=O)N[C@@H]2C(=O)N[C@H](C(C)C)C(=O)N3CCC[C@H]3C(=O)N(C)CC(=O)N(C)[C@@H](C(C)C)C(=O)O[C@@H]2C)c(N)c1=O [actinomycin D] (I: T[dV]P[Sar][NMeV] / II: T[dV]P[Sar][NMeV]; ester I:1-I:C, II:1-II:C; linker I:N-II:N via Actinocin(9to1))",percent change in EPSP amplitude,[1]; [5],+10.12%
same,percent change in EPSP amplitude,[1]; [6],7.87%
COc1ccc(C[C@H]2NC[C@H](O)[C@H]2OC(C)=O)cc1 [anisomycin],percent change in EPSP amplitude,[1]; [5],+19.17%
same,percent change in EPSP amplitude,[1]; [6],+3.67%
same,level of ApCREB-2 mRNA,ApCREB-2 mRNA,does not change
C=C1[C@@H](O)[C@@H]2O[C@]3(CC[C@H](/C=C/[C@@H](C)[C@@H]4CC(C)=C[C@@]5(O[C@H](C[C@@](C)(O)C(=O)O)CC[C@H]5O)O4)O3)CC[C@H]2O[C@@H]1[C@@H](O)C[C@H](C)[C@H]1O[C@@]2(CCCCO2)CC[C@H]1C [okadaic acid],level of ApCREB-2 mRNA,ApCREB-2 mRNA,does not change
NGF: nerve growth factor,amount of ATF4,ATF4,dramatically reduced
rat CREB-1: wild type rat CREB expressed from pRcRSV-CREB341,relative activation,[3]; [7],68.82±7.3
same,relative activation,[3]; [8],7.65±0.65
"ApCREB-2: Aplysia bZIP transcription factor, 378 amino acids (SEQ ID NO 1), expressed from pRcRSV-ApCREB-2 (protein) MELDLWSEDFQLAREWGLEMPVVQTDGQFGDLKSTSRHGGDESLSLQPQGATLKLEPFEEDVLGAEWMESSDLGSFLDALGDNHERLHPFESNLLEFTSLITPDDSTVSKDILSSTLQFPTQPVNIPLYASHGAEDFSAETEFENHLSPPDSPEQVAPVINLEPVELTASHMTVISPDGLLGGMELASESLTFTELDFVNFNDSAVGSIGGAEELLGSPLSVDDVESTISFSGPSSPETSQSSIIESSPELYKVISTSSIDASKRFSPYSRSSKSKQSVKTSDAKAPRKTRTPAQPVPEHVIMEHLDKKDRKKLQNKNAAIRYRMKKKGEAQGIKGEEQELEELNTKLKTKVDDLQREIKYMKNLMEDVCKAKGIQLKM",relative activation,"[4]; cotransfected with ApCREB-1, absence of PKA catalytic subunit",0.96±0.15
same,relative activation,"[4]; cotransfected with ApCREB-1, presence of PKA catalytic subunit",1.64±0.20
same,relative activity as compared to wild type GAL4,UASg-lacZ gene,82%
same,relative activation,"[3]; cotransfected with ApCREB-1, absence of PKA",1.84±0.25
same,relative activation,"[3]; cotransfected with ApCREB-1, presence of PKA",4.12±0.53
same,relative activation,"[3]; cotransfected with rat CREB-1, with PKA",5.15±0.62
same,relative activation,"[3]; cotransfected with rat CREB-1, without PKA",2.27±0.3
same,relative activation,[3]; [7],43.12±5.1
same,relative activation,[3]; [8],2.46±0.2
